Experimental data from patent publication US20210198256A1, “COMPOUNDS FOR THE DEGRADATION OF BRD9 OR MTH1” (C4 Therapeutics, Inc., priority 2018, published 2021).

Test system: SMARTCAR-MTH1-wt-HiBiT (Jurkat.7 cells)
Assay: HiBit Lytic Assay (HiBit DC50, MTH1 degraders of Table 2)
Format: cell-based, human
Settings: Jurkat.7 SMARTCAR-MTH1-wt-HiBiT cells, compound treatment time 4 hr, 11-point half log dose response
Method in brief: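 Jurkat.7 cells expressing SMARTCAR-MTH1-wt-HiBiT were treated at 37° C with 11-point half-log dilutions (top final 1000 nM or 833 nM, duplicates, 0.1% DMSO). Remaining HiBiT-tagged protein was read by Nano-Glo HiBiT lytic luminescence, normalized to media-only and DMSO controls.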

Compound	DC50 [nM]
CNC(=O)c1cnc2ccc(-c3ccc(C(=O)NCCCNC(=O)CN(C)c4cccc5c4C(=O)N(C4CCC(=O)NC4=O)C5=O)cc3)cc2c1Nc1ccccc1 (centres unmarked) [Compound 473, 6-(4-((3-(2-((2-(2,6-dioxopiperidin-3-yl)-1,3-dioxoisoindolin-4-yl)(methyl)amino)acetamido)propyl)carbamoyl)phenyl)-N-methyl-4-(phenylamino)quinoline-3-carboxamide]	< 100
CNC(=O)c1cnc2ccc(-c3ccc(C(=O)NCCCCNC(=O)CN(C)c4cccc5c4C(=O)N(C4CCC(=O)NC4=O)C5=O)cc3)cc2c1Nc1ccccc1 (centres unmarked) [Compound 474, 6-(4-((4-(2-((2-(2,6-dioxopiperidin-3-yl)-1,3-dioxoisoindolin-4-yl)(methyl)amino)acetamido)butyl)carbamoyl)phenyl)-N-methyl-4-(phenylamino)quinoline-3-carboxamide]	< 100
CNC(=O)c1cnc2cc(OC)c(-c3ccc(C(=O)NCCCCNC(=O)COc4cccc5c4C(=O)N(C4CCC(=O)NC4=O)C5=O)cc3)cc2c1Nc1ccccc1 (centres unmarked) [Compound 475, 6-(4-((4-(2-((2-(2,6-dioxopiperidin-3-yl)-1,3-dioxoisoindolin-4-yl)oxy)acetamido)butyl)carbamoyl)phenyl)-7-methoxy-N-methyl-4-(phenylamino)quinoline-3-carboxamide]	< 100

Target: T1, BRD9 (Homo sapiens, UniProt Q9H8M2)
T1 sequence (Q9H8M2 1-597): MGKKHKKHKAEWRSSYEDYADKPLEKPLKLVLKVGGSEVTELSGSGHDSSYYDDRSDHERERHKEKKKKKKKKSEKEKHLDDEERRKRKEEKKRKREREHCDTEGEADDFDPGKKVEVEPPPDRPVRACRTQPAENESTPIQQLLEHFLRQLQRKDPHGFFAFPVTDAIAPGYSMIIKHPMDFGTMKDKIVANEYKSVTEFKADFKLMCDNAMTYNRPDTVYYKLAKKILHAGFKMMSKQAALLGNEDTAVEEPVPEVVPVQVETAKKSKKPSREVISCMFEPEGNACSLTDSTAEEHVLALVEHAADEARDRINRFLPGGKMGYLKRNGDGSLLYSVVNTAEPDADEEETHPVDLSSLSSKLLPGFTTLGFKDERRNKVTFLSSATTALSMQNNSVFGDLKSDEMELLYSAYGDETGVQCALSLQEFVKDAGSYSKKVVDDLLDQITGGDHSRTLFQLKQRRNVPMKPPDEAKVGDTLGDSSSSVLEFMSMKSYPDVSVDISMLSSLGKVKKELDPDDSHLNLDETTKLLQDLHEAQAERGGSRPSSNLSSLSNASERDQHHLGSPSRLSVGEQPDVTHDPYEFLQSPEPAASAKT
Assay: HiBit Lytic Assay (HiBit DC50, BRD9 degraders of Table 1)
Format: cell-based
Settings: 11-point half log dose response, NanoLuc signal
Experimental: Example 3. HiBit Lytic Assay
• Compound is made at 10 mM, half log dilution, 11 points. • MDR plates can also be ordered from Frontier with same format. • 1. Barcode a 384LDV plate (384-well Low Dead Volume Microplate, Labcyte LP-0200) (Echo compatible) on the left side. • 2. Transfer 13.6 μL of 10 mM compound into column 1 of LDV plate (Labcyte). • 3. Fill column 2-11 and column 23 of MDR plate with 9.30 μL of DMSO. • 4. Serial dilute 3.16 fold from column 1 to 2 by transferring 4.30 μL from column 1 to column 2, and so on to column 11. *Change tip in every dilution to prevent compound carryover effect! • 5. Seal the plate with Plate Sealer, then store the MDR plate at room temperature for short term storage and in −20° C. for long term storage.
• Cells are treated with 30 nL of each compound at 10 mM, half log dilution, 11 points with final concentration of 1000 nM or 833 nM, half log dilution, 11 points, in duplicates. Final DMSO concentration is 0.1%. • 1. Barcode the plates made on the left side and label the plates with silver marker. • 2. Dispense with the following scheme: • a. 30 nL of compound into corresponding wells in cell plates via Echo550 with “MDR32_HiBiT16_30 nL”. Top concentration will be 1000 nM. • 3. Seal the plate with Plate Sealer.
• Cells are dispensed at density specified in Cell Line Table in 384-well microplate. • 1. Culture cells to between 50-80% of confluence in sterile culture flasks of appropriate size. • 2. For Adherent Cell Lines: • a. Aspirate off growth media in culture flask, and wash off the Phenol Red media with 5 mL of 1×PBS. • b. Add 5 mL of Trypsin to the cells, incubate at 37° C. for 5 minutes. • c. Add 5 mL of growth media to the trypsinzed cells, and resuspend. • 3. Remove 10 μL of cells, and resuspend the cells with 10 μL of Trypan Blue. Insert the solution to counting chamber slide, and count the cells via cell counter. • 4. Adjust the cell concentration to specified plating density, and strain the cells with cell strainer. • 5. Dispense the cells via E1-ClipTip™ Electronic Multichannel Pipettes or Multidrop™ Combi Reagent Dispenser with Standard tube dispensing cassette: • a. Prime the cassette with 10-20 mL of ddH2O. • b. Prime the cassette with 10-20 mL of cells. • c. Dispense the cells at low speed for 30 μL/well in Corning® 384 Well Low Flange Black Flat Bottom Polystyrene TC-Treated Microplate. • d. Wash the cassette with 10-20 mL of ddH2O, follow by 10-20 mL of 70% EtOH, then again with 10-20 mL of ddH2O. • 6. Incubate the plates at 37° C.×compound treatment time.
• 1. If not already, bring Nano-Glo® HiBiT Lytic Buffer to room temperature. • 2. Determine the amount of reagent needed. A volume of reagent equal to the volume of media in the well should be added (i.e. 30 μL of cells will need 30 μL of HiBiT Lytic reagent). • 3. Into a given volume of buffer, dilute the substrate 50-fold and the LgBiT protein 100-fold. For example, to make 10 ml of reagent, add the following: • 10 ml Nano-Glo® HiBiT Lytic Buffer • 200 μl Nano-Glo® HiBiT Lytic Substrate • 100 μl LgBiT Protein • The reagent should be reconstituted immediately before use. However, once reconstituted, it should take about 4 hours for the activity to decrease 10%. • 4. Cool down the cell plate to room temperature for 10-15 minutes without lid. • 5. Dispense the HiBiT Lytic Reagent via E1-ClipTip™ Electronic Multichannel Pipettes or Multidrop™ Combi Reagent Dispenser with Standard tube dispensing cassette: • a. Prime the cassette with 10-20 mL of ddH2O. • b. Prime the cassette with 10-20 mL of CTG 2.0. • c. Dispense the HiBiT Lytic Reagent at medium speed for 30 μL/well in cell plate to column 1-23 (column 24 will be used as plate background). • d. Wash the cassette with 10-20 mL of ddH2O, follow by 10-20 mL of 70% EtOH, then again with 10-20 mL of ddH2O. • 6. Incubate the cell plate at room temperature for 10 minutes without lid. • 7. […]

Compound	DC50 [nM]
COc1cc(-c2cn(C)c(=O)c3c2cnn3C)cc(OC)c1CN(C)CC(=O)NCCCCCCCCNc1cccc2c1C(=O)N(C1CCC(=O)NC1=O)C2=O (centres unmarked) [Compound 200, 2-[[4-(1,6-dimethyl-7-oxo-pyrazolo[3,4-c]pyridin-4-yl)-2,6-dimethoxy-phenyl]methyl-methyl-amino]-N-[8-[[2-(2,6-dioxo-3-piperidyl)-1,3-dioxo-isoindolin-4-yl]amino]octyl]acetamide]	< 100
COc1cc(-c2cn(C)c(=O)c3[nH]ncc23)cc(OC)c1CN(C)CC(=O)NCCCCCCCCNc1cccc2c1C(=O)N(C1CCC(=O)NC1=O)C2=O (centres unmarked) [Compound 201, 2-[[2,6-dimethoxy-4-(6-methyl-7-oxo-1H-pyrazolo[3,4-c]pyridin-4-yl)phenyl]methyl-methyl-amino]-N-[8-[[2-(2,6-dioxo-3-piperidyl)-1,3-dioxo-isoindolin-4-yl]amino]octyl]acetamide]	< 100
COc1cc(-c2cn(C)c(=O)c3[nH]ncc23)cc(OC)c1CNCC(=O)NCCCCCCCCCc1ccc2c(c1)C(=O)N(C1CCC(=O)NC1=O)C2=O (centres unmarked) [Compound 202, 2-[[2,6-dimethoxy-4-(6-methyl-7-oxo-1H-pyrazolo[3,4-c]pyridin-4-yl)phenyl]methylamino]-N-[9-[2-(2,6-dioxo-3-piperidyl)-1,3-dioxo-isoindolin-5-yl]nonyl]acetamide]	< 100
COc1cc(-c2cn(C)c(=O)c3[nH]ncc23)cc(OC)c1CNCC(=O)NCCCCCCCCCc1cccc2c1C(=O)N(C1CCC(=O)NC1=O)C2=O (centres unmarked) [Compound 204, 2-[[2,6-dimethoxy-4-(6-methyl-7-oxo-1H-pyrazolo[3,4-c]pyridin-4-yl)phenyl]methylamino]-N-[9-[2-(2,6-dioxo-3-piperidyl)-1,3-dioxo-isoindolin-4-yl]nonyl]acetamide]	< 100
COc1cc(-c2cn(C)c(=O)c3c2cnn3C)cc(OC)c1CNCC(=O)NCCCCCCCCCc1ccc2c(c1)C(=O)N(C1CCC(=O)NC1=O)C2=O (centres unmarked) [Compound 206]	< 100
COc1cc(-c2cn(C)c(=O)c3[nH]ncc23)cc(OC)c1CNCC(=O)NCCCCCNC(=O)CCc1ccc2c(c1)C(=O)N(C1CCC(=O)NC1=O)C2=O (centres unmarked) [Compound 207, N-[5-[[2-[[2,6-dimethoxy-4-(6-methyl-7-oxo-1H-pyrazolo[3,4-c]pyridin-4 yl)phenyl]methylamino]acetyl]amino]pentyl]-3-[2-(2,6-dioxo-3-piperidyl)-1,3-dioxo-isoindolin-5-yl]propanamide]	< 100
COc1cc(-c2cn(C)c(=O)c3c2cnn3C)cc(OC)c1CNCC(=O)NCCCCCCCCCc1cccc2c1C(=O)N(C1CCC(=O)NC1=O)C2=O (centres unmarked) [Compound 208, 2-[[4-(1,6-dimethyl-7-oxo-pyrazolo[3,4-c]pyridin-4-yl)-2,6-dimethoxy-phenyl]methylamino]-N-[9-[2-(2,6-dioxo-3-piperidyl)-1,3-dioxo-isoindolin-4-yl]nonyl]acetamide]	< 100
COc1cc(-c2cn(C)c(=O)c3c2ccn3C)cc(OC)c1CN(C)CC(=O)NCCCCCCCCNc1cccc2c1C(=O)N(C1CCC(=O)NC1=O)C2=O (centres unmarked) [Compound 209, 2-[[4-(1,6-dimethyl-7-oxo-pyrrolo[2,3-c]pyridin-4-yl)-2,6-dimethoxy-phenyl]methyl-methyl-amino]-N-[8-[[2-(2,6-dioxo-3-piperidyl)-1,3-dioxo-isoindolin-4-yl]amino]octyl]acetamide]	< 100
COc1cc(-c2cn(C)c(=O)c3c2ccn3C)cc(OC)c1CN(C)CC(=O)NCCCCCCCCNC(=O)c1ccc(=O)n(C2CCC(=O)NC2=O)c1 (centres unmarked) [Compound 218, N-[8-[[2-[[4-(1,6-dimethyl-7-oxo-pyrrolo[2,3-c]pyridin-4-yl)-2,6-dimethoxy-phenyl]methyl-methyl-amino]acetyl]amino]octyl]-1-(2,6-dioxo-3-piperidyl)-6-oxo-pyridine-3-carboxamide]	< 1000
COc1cc(-c2cn(C)c(=O)c3c2ccn3C)cc(OC)c1CN(C)CC(=O)NCCCCCCCCNc1cccc2c1CN(C1CCC(=O)NC1=O)C2=O (centres unmarked) [Compound 220, 2-[[4-(1,6-dimethyl-7-oxo-pyrrolo[2,3-c]pyridin-4-yl)-2,6-dimethoxy-phenyl]methyl-methyl-amino]-N-[8-[[2-(2,6-dioxo-3-piperidyl)-1-oxo-isoindolin-4-yl]amino]octyl]acetamide]	< 100
COc1cc(-c2cn(C)c(=O)c3cnccc23)cc(OC)c1CNCC(=O)NCCCCCCCCNc1cccc2c1C(=O)N(C1CCC(=O)NC1=O)C2=O (centres unmarked) [Compound 221, 2-[[2,6-dimethoxy-4-(2-methyl-1-oxo-2,7-naphthyridin-4-yl)phenyl]methylamino]-N-[8-[[2-(2,6-dioxo-3-piperidyl)-1,3-dioxo-isoindolin-4-yl]amino]octyl]acetamide]	< 100
